Results reported in patent publication US11666645B2, “CD200 inhibitors and methods of use thereof” (REGENTS OF THE UNIVERSITY OF MINNESOTA, priority 2015, dated 2023).
Entries after “also recorded” stand apart in the source; their conditions may differ.

Assays:
tumor bearing mice [1] = test: Prime-boost OVA vaccination of tumor bearing mice, SIINFEKL specific CD8+ T cell expansion by flow cytometry; format: in vivo, mouse; settings: tumor bearing mice vaccinated with OVA+Poly:ICLC +/- inhibitor, whole blood
Procedure: FIGS. 3A-3B. FIG. 3A) Vaccination scheme. FIG. 3B) Tumor bearing or non-tumor bearing mice were vaccinated on day 2 and 8 with an agonist (4012) or CD200 inhibitor (6059) only, and on days 3-6 and […] with OVA+Poly:ICLC +/− the agonist (4012) or CD200 inhibitor (6059). B) Mice were bled on day 10, whole blood was stained with an anti-CD8 and SIINFEKL specific detramer (SEQ ID NO: 18), lysed and analyzed by flow cytometry.
(§1) FIGS. 12A-12C. CD200 inhibitor reverses the suppressive effects of the tumor environment. Tumor and non-tumor bearing mice were vaccinated with OVA+Poly:ICLC +/− the CD200 inhibitor 6059 and analyzed for FIG. 12A) SIINFEKL/Kb^+CD8^+ T cell expansion (“SIINFEKL” disclosed as SEQ ID NO: 18). FIG. 12B) Lymphocytes were harvested and stimulated with SIINFEKL peptide (SEQ ID NO: 18). Supernatants were analyzed for TNFα and IFNγ secretion. FIG. 12C) The CD200 inhibitor 6059 was added to OVA+exosomes. Error bars indicate +/−SEM (n=4/group; *P<0.05; by t-test).
(§2) These experiments support the hypothesis that exosomes express the CD200 protein thereby inhibiting the ability to prime a T cell response in the draining lymph nodes of glioma bearing mice. Other CD200 inhibitors were similarly evaluated (FIGS. 3A-3B, 9A-9B and 24A-24B).

tumor bearing mice [2] = test: Recall response: lymphocytes of vaccinated tumor bearing mice restimulated with OVA/SIINFEKL, cytokine release; format: in vivo, mouse; settings: lymphocytes from cervical lymph nodes of vaccinated tumor bearing mice restimulated, supernatant after 48 hrs
Text: FIGS. 4A-4B. Tumor bearing or non-tumor bearing mice were vaccinated on day 2 and 8 with an agonist or CD200 inhibitor only, and on days 3-6 and 10 with OVA+Poly:ICLC +/− the CD200 inhibitor 6059. On day 10, were harvested and stimulated with OVA protein to measure a recall response via cytokine release. FIG. 4A) TNF alpha (PG/ML) levels from tumor bearing mice. FIG. 4B) IFN gamma (PG/ML) levels in tumor bearing mice.
as §1, §2

glioma-derived exosomes = test: Vaccination of non-tumor bearing mice with OVA + glioma-derived exosomes +/- inhibitor; format: in vivo, mouse; settings: OVA+glioma-derived exosomes+antagonist
Procedure: as §1, §2

GL261 tumor bearing mice [3] = test: GL261 glioma model, inhibitor inoculated into the tumor site in the brain, then tumor lysate + inhibitor; format: in vivo, mouse; settings: 10 μg inhibitor in the brain at tumor coordinates on day 2, then weekly tumor lysate + inhibitor
Procedure: Tumor-bearing mice were inoculated in the brain with 10 μg of the inhibitor 6059 at the same coordinates at which the tumor was injected two days previously. This was followed by weekly injections of tumor lysate+inhibitor (FIGS. 5A-5B).

GL261 tumor bearing mice [4] = test: GL261 glioma model, vaccination with tumor lysate +/- CD200 inhibitor, tumor growth and survival
Procedure: FIG. 5B) Mice were imaged weekly for tumor growth. The following groups were studied: saline (1), tumor lysate (2), and tumor lysate+CD200 inhibitor (6059) (3). FIG. 5C) Percent survival post inoculation for saline (1), tumor lysate (2), and tumor lysate+CD200 inhibitor (3) groups.
In vivo survival study. […] All vaccinations were administered in the back of the neck in tumor bearing mice.

[5] = system: Human immature dendritic cells; test: Human immature dendritic cells pulsed with P1 peptide or alanine-substituted versions, cytokine production; format: cell-based; settings: human CD11b-derived immature dendritic cells (GM-CSF, IL4), supernatants
Procedure: FIGS. 13A-13B. Human CD11b cells were isolated. Purified CD11b cells were differentiated to immature dendritic cells using GM-CSF and IL4. Cells were pulsed with P1, P2, P3 and P4 CD200 inhibitors (see Table 2). Supernatants were analyzed for FIG. 13A) cytokine or FIG. 13B) chemokine production.
FIG. 16. Human CD11b cells were isolated and the purified CD11b cells were differentiated to immature dendritic cells using GM-CSF and IL4. Cells were pulsed with human P1 peptide, or a mutated version thereof comprising an alanine substitution (denoted by P1 and the amino acid substitution and position; e.g., P1A1, P1A2, P1A3, P1A4, P1A5, P1A6, etc.) (see, Table 2). Supernatants were analyzed for cytokine production.

[6] = system: splenocytes + OT-1 T cells; test: Splenocytes pulsed with OVA + inhibitor, OT-1 T cells added, cytokine production by flow cytometric bead array; format: cell-based, mouse; settings: splenocytes pulsed 24 hours with OVA+inhibitor, 48 hours with OT-1 T cells
Procedure: FIGS. 11A-11B. Splenocytes were pulsed with OVA+an inhibitor peptide and incubated for 24 h. Following incubation, cells were washed, purified OT1 were added to wells and incubated for an additional 48 hours then analyzed for FIG. 11A) TNFa and IL-6 production; and FIG. 11B) IL-2 and IL-17 production. Error bars indicate +/−SEM (n=4/group; *P<0.05; ** P<0.01).
We hypothesize that the two different human CD200 inhibitor peptides (peptide 1=hP1 & peptide 2=hP2, table 2) are hitting different activation receptors on dendritic cells, although only one has been identified. […] We want to generate the immune response most beneficial for our patients. These conclusions were supported by experiments where splenocytes were pulsed with OVA+selected CD200 inhibitors (6061, 6069, 4004, 4006, 4013) for 24 hours. The splenocytes were then washed and cultured for 48 hours with the addition of OT-1 T cells. The cultures were then assessed for cytokine production using a flow cytometric bead array.

PPIA = PPIA production in monocytes with CD200 inhibitor; format: cell-based; settings: peptide binds the CD200 activating receptor
Text: FIGS. 18A-18E. Experimental Model. CD200 is solubilized from the tumor or endothelial interacting on its receptor (CD200R). This CD200/CD200R interaction induces the upregulation of PPIA through the MYC pathway decreasing TNF alpha and IL2 production needed for an immune response (FIG. 18A).
These antagonist have been reported to reverse the differentiation to as myeloid-derived suppressor cells following interaction with soluble CD200 (FIG. 18C) (Moertel et al., J Immunother Can; 2(1):46) and in vivo (FIG. 23). The mechanism of […] protein inhibition has been determined through the upregulation of an immunosuppressive protein PPIA (FIGS. 18A-18E) which is inhabited with the use of the CD200 inhibitor P1A12.

## NTIGDGGCY [Inhibitor 6059]
Tumor bearing mice [1]
  SIINFEKL specific CD8+ T cell expansion: effect on tumor induced suppression: reversed tumor induced suppression; also recorded: reversed the suppressive effects of the tumor microenvironment; also recorded: reversed the suppressive effects in tumor-bearing mice
Tumor bearing mice [2]
  Recall response via cytokine release (TNF alpha, IFN gamma): effect on tumor induced suppression: modulate/reverse glioma-induced suppression; also recorded: reversed the suppressive effects of the tumor microenvironment
glioma-derived exosomes
  Suppression induced by exosomes: partially reversed the suppression induced by exosomes
GL261 tumor bearing mice [3]
  Tumor growth after inhibitor into the tumor site in the CNS: Tumor growth was delayed
GL261 tumor bearing mice [4]; GL261 mice vaccinated weekly with tumor lysates + inhibitor vs saline or tumor lysates
  Survival benefit: increased survival benefit
GL261 tumor bearing mice [4]; GL261 mice, tumor lysate (65 μg) + inhibitor (50 μg), imaged weekly, vs saline or tumor lysate
  Tumor growth: slowed tumor growth
GL261 tumor bearing mice [4]; GL261 mice, tumor lysate (65 μg) + inhibitor (50 μg), vs saline or tumor lysate
  Enhancement of survival: 30%

## SQKVSATACLTLY [hP1A6]
[5]
  Cytokine production (response) vs human P1 peptide: enhanced TNF-α and IL-β production
[5]; listed as P1A6
  Cytokine production (response) vs human P1 peptide: significantly enhanced response

## SQKVSGTACLTLY [Inhibitor 4006, P3 in b288]
[6]
  Cytokine profile (TNFa, IL-6, IL-2, IL-17): different cytokine profiles

## TASLRCSLKTSQE [Inhibitor 4004]
[6]
  Cytokine profile (TNFa, IL-6, IL-2, IL-17): different cytokine profiles

## VTWQKKKAVSPAN [Inhibitor P1A12, P1 in b288]
PPIA
  Production of PPIA: inhibits the production of PPIA
